Assay results taken from PMC2116235 (The Journal of Cell Biology, 1990).

How the values were obtained:
[1] = system: bovine aortic endothelial cells; assay: Cell spreading assay; format: cell-based; conditions: 37C
type IV collagen [2] = molecular target: T1, type IV collagen (Mus musculus, UniProt P02463+P08122); assay: Solid phase binding of 125I-peptides to type IV collagen; design: species or system murine (EHS tumor); conditions: 37C, 2 h; for Competition of bound 125I-peptide by unlabeled corresponding peptide: 5 µg 125I-peptide, unlabeled peptide up to 400-fold excess (2 mg/ml)
T1 sequence (P02463 173-1669): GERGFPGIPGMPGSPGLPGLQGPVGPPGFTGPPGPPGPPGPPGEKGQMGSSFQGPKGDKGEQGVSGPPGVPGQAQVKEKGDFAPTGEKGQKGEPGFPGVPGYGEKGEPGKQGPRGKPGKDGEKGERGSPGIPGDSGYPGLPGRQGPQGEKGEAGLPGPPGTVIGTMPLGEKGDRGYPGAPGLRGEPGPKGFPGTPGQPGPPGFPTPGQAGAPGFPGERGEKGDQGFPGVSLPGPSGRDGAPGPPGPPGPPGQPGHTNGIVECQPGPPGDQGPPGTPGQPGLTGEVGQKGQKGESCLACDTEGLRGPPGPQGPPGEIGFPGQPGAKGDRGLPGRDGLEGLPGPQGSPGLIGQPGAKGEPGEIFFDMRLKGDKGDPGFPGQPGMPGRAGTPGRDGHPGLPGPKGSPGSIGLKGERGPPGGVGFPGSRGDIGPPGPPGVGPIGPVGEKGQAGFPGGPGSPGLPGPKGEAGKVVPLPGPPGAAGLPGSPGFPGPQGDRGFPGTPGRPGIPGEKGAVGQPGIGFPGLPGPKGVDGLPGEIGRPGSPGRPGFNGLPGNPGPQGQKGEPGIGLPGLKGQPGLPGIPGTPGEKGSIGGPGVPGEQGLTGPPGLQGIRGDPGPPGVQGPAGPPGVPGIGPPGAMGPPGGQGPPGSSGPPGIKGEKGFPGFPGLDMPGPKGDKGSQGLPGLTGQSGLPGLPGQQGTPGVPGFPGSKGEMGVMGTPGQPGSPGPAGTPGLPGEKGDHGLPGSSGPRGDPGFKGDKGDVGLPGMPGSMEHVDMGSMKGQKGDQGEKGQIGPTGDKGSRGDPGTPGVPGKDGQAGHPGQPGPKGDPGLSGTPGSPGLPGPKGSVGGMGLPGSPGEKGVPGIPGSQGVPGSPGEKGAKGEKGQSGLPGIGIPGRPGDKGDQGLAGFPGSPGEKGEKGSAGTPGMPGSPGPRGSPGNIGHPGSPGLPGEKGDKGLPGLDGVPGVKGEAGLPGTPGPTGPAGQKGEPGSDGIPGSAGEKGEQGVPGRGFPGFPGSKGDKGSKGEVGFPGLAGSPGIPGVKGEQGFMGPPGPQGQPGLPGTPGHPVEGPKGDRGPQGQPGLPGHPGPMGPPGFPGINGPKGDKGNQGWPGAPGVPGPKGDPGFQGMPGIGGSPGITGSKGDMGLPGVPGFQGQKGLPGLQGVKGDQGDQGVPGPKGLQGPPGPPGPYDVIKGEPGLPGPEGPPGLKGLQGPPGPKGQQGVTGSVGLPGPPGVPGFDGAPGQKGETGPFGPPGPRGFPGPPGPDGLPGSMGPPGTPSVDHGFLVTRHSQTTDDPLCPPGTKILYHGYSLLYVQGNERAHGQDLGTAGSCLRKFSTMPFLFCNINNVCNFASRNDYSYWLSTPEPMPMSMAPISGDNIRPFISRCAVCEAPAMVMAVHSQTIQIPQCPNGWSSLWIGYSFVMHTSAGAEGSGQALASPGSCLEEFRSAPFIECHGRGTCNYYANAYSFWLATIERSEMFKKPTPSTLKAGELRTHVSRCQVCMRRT
T1 sequence (P08122 29-1707 limits assumed): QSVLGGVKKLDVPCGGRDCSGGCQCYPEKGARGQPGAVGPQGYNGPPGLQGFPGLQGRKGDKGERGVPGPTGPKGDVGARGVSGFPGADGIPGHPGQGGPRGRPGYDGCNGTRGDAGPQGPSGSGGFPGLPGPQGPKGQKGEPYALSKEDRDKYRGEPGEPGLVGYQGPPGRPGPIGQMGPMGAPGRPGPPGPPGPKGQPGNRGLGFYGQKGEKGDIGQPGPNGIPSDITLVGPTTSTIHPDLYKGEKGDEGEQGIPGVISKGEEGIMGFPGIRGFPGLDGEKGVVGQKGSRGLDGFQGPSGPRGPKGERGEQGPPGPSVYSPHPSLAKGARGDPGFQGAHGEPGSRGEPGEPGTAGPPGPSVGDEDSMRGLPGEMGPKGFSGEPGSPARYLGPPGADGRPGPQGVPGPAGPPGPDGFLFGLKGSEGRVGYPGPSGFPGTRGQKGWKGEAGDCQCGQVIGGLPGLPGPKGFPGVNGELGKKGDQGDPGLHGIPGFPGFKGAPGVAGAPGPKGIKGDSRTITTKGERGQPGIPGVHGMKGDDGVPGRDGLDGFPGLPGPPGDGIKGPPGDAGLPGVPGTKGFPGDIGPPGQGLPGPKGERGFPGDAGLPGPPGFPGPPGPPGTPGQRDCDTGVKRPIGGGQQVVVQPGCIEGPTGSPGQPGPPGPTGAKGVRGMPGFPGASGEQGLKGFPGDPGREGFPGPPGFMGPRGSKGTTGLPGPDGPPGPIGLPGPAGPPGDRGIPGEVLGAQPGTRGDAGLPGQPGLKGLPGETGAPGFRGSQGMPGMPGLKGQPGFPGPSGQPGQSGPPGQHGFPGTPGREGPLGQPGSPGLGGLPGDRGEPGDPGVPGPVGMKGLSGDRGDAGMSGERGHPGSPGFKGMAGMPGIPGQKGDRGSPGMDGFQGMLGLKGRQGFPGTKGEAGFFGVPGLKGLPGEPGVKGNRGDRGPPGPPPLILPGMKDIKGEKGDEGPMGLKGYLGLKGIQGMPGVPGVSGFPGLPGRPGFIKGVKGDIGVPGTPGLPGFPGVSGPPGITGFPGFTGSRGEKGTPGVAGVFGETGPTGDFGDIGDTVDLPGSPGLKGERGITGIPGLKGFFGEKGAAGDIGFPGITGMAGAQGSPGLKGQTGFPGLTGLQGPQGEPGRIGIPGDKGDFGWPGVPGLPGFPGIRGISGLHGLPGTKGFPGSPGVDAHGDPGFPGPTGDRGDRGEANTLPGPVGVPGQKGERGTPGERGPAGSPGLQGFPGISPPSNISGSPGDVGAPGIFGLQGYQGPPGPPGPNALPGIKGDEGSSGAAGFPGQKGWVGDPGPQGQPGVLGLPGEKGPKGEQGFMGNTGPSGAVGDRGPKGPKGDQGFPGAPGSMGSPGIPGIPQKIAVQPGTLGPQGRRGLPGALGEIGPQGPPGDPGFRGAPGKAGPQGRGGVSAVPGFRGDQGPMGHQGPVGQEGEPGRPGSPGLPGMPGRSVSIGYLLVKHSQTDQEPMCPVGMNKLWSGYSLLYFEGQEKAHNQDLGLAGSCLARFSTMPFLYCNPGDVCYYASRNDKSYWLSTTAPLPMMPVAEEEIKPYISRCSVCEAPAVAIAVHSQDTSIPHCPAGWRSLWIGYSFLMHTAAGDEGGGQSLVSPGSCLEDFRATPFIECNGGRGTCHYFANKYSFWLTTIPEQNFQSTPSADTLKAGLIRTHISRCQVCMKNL

type IV collagen [3] = molecular target: T1, type IV collagen; assay: Turbidity of type IV collagen assembly; format: biochemical, murine (EHS tumor); conditions: peptide 100 µg/ml with type IV collagen-NC1 domain mixtures, 37C, 360 nm
[4] = system: bovine aortic endothelial cells; assay: Binding of 125I-Hep-I to endothelial cells in solution, direct and competition; conditions: 5 µg 125I-Hep-I; unlabeled peptide up to 400-fold excess, 4C, 20 min
[5] = system: adhesion of bovine aortic endothelial cells to NC1 domain; assay: Competition of endothelial cell binding to NC1 domain by peptides; format: cell-based
type IV collagen [6] = conditions: cited from earlier work
[7] = system: microvascular endothelial cells; assay: Adhesion of microvascular endothelial cells; format: cell-based; conditions: preliminary observations
BSA = assay: Nonspecific binding of peptide to BSA-coated plastic; conditions: BSA coated onto plastic; all concentrations used; data not shown
[8] = cited from earlier work
[9] = system: adhesion of bovine aortic endothelial cells to type IV collagen; assay: Competition of endothelial cell binding to type IV collagen by peptides; format: cell-based; conditions: ~5 µg (100 µg/ml) peptide; type IV collagen coated at 10 µg/ml; 60 min at 37C
murine melanoma cells = assay: Adhesion of murine melanoma cells; format: cell-based; conditions: preliminary observations
[10] = system: adhesion of bovine aortic endothelial cells to type IV collagen; format: cell-based; conditions: type IV collagen 1-60 µg/ml; glycosaminoglycan up to 10 mg/ml; 60 min at 37C
[11] = molecular target: intact type IV collagen (EHS tumor) (mouse (endogenous in the EHS tumor)); assay: rotary shadowing electron microscopy
[12] = system: bovine aortic endothelial cells; assay: Direct solid phase cell-binding; format: cell-based; conditions: 35S-labeled cells, 37C, 30-60 min
[13] = system: bovine aortic endothelial cells; conditions: as compared to fibronectin or laminin; cited from earlier work
[14] = 30 min, substrate type IV collagen 10 µg/ml or peptide Hep-I 20 µg/ml

## BSA: control coating protein [reference compound]
[1]; BSA substrate 5 µg/ml, all time intervals (30-90 min)
  Adhesion of added endothelial cells in spreading experiment: 1.7-2.2%

## DPLCPPGTKIL [peptide 1]
Type IV collagen [2]
  Competition of bound 125I-peptide by unlabeled corresponding peptide: could not be competed
Type IV collagen [2]; solid phase, 125I-peptide, pH 7.4
  Nature of binding to type IV collagen: this binding should not be specific
Type IV collagen [3]
  Additive effect on maximal turbidity: did not have any additive effect

## GDSRTITTKGERGQP [peptide ET-2]
[4]
  Competition for binding of 125I-Hep-I to endothelial cells: failed to compete

## GRGDSP [reference compound]
[5]; up to 500 µg/ml inhibitor, NC1 coated 20 µg/ml, 60 min at 37C
  Effect on endothelial cell adhesion to NC1 domain: did not have any effect

## MFKKPTPSTLKAGELR [peptide 4]
Type IV collagen [3]
  Additive effect on maximal turbidity: did not have any additive effect

## TAGSCLRKFSTM [peptide Hep-I]
Type IV collagen [6]
  Inhibition of the binding of heparin to type IV collagen: dose-dependent manner
[5]; 1 µg (20 µg/ml) peptide, NC1 coated 20 µg/ml, 100% = no inhibitor, 60 min at 37C
  Endothelial cell adhesion to NC1 domain: ≤ 20%
[5]; substrates coated with NC1 domain (Discussion)
  Inhibition of cell adhesion on NC1 domain substrates: ~ 80%
Type IV collagen [2]
  Competition of bound 125I-peptide by unlabeled corresponding peptide: efficient competition
[4]
  Competition for binding of 125I-Hep-I to endothelial cells: efficiently competed
[1]; [14]
  Spread cells, of attached endothelial cells: ~ 60%
[1]; 60 min, peptide Hep-I substrate 20 µg/ml
  Spread cells, of attached endothelial cells: 83%
[1]; 90 min, peptide Hep-I substrate 20 µg/ml
  Spread cells, of attached endothelial cells: 84%
[7]
  Adhesion of microvascular endothelial cells: also adhered
BSA
  Nonspecific binding of the peptide to BSA, of total binding to type IV collagen: < 2%
[8]
  Binding to heparin: specifically bound heparin
[9]
  Maximal inhibition of adhesion to type IV collagen: ~ 50%
Murine melanoma cells
  Adhesion of murine melanoma cells: also adhered

## heparin
[10]
  Effect on endothelial cell binding to type IV collagen: unaffected

## intact type IV collagen (EHS tumor) (complex)
[11]
  percent of the total type IV collagen in the lattice: 74%

## type IV collagen: type IV collagen isolated from the EHS tumor, a murine tumor
[12]; coated at 0.05 µg/well, ~5,000/well
  Adhesion of added endothelial cells: ~ 20%
[12]; coated at 5 µg/well
  Adhesion of added endothelial cells: ~ 40%
[1]; [14]
  Spread cells, of attached endothelial cells: ~ 92.8%
[8]
  Binding to heparin: specifically bound heparin
[13]
  Preferential adhesion of aortic endothelial cells: preferably adhered
